Test results from patent US9695155B2, “Herbicidal substituted pyrimidinyloxy benzene compounds” (E. I. DU PONT DE NEMOURS AND COMPANY, priority 2013, dated 2017).

Columns and labels:
Russian thistle = assay: Test D preemergence; format: in vivo, Salsola kali; design: key: 0 = no effect, 100 = complete control
From the text: Seeds of plant species selected from bluegrass (annual bluegrass, Poa annua), blackgrass (Alopecurus myosuroides), canarygrass (littleseed canarygrass, Phalaris minor), chickweed (common chickweed, Stellaria media), galium (catchweed bedstraw, Galium aparine), bromegrass, downy (downy bromegrass, Bromus tectorum), field poppy (Papaver rhoeas), field violet (Viola arvensis), green foxtail (Setaria viridis), deadnettle (henbit deadnettle, Lamium amplexicaule), Italian ryegrass (Lolium multiflorum), kochia (Kochia scoparia), lambsquarters (Chenopodium album), oilseed rape (Brassica napus), pigweed (Amaranthus retroflexus), chamomile (scentless chamomile, Matricaria inodora), Russian thistle (Salsola kali), speedwell (bird's-eye speedwell, Veronica persica), spring barley (Hordeum vulgare), spring wheat (Triticum aestivum), wild buckwheat (Polygonum convolvulus), wild mustard (Sinapis arvensis), wild oat (Avena fatua), wild radish (Raphanus raphanistrum), windgrass (Apera spica-venti), winter barley (Hordeum vulgare), and winter wheat (Triticum aestivum) were planted into a silt loam soil and treated preemergence with test chemicals formulated in a non-phytotoxic solvent mixture which included a surfactant.
At the same time, these species were planted in pots containing Redi-Earth® planting medium (Scotts Company, 14111 Scottslawn Road, Marysville, Ohio 43041) comprising spaghnum peat moss, vermiculite, wetting agent and starter nutrients and treated with postemergence applications of the test chemicals formulated in the same manner. Plants ranged in height from 2 to 18 cm (1- to 4-leaf stage). Treated plants and controls were maintained in a controlled growth environment for 7 to 21 days after which time all species were compared to controls and visually evaluated. Plant response ratings, summarized in Table D, are based on a scale of 0 to 100 where 0 is no effect and 100 is complete control. A dash (-) response means no test result.

barley, winter = assay: Test C postemergence; format: in vivo, Hordeum vulgare; conditions: for Plant response rating (0 to 100), Barley: postemergence; for Plant response rating, Barley: Postemergence, scale 0 to 100 (0 no effect, 100 complete control)
From the text: (§1) Seeds of plant species selected from blackgrass (Alopecurus myosuroides), Italian ryegrass (Lolium multiflorum), wheat, winter (winter wheat, Triticum aestivum), galium (catchweed bedstraw, Galium aparine), corn (Zea mays), large (Lg) crabgrass (Digitaria sanguinalis), giant foxtail (Setaria faberii), johnsongrass (Sorghum halepense), lambsquarters (Chenopodium album), morningglory (Ipomoea coccinea), yellow nutsedge (Cyperus esculentus), pigweed (Amaranthus retroflexus), ragweed (common ragweed, Ambrosia elatior), soybean (Glycine max), barnyardgrass (Echinochloa crus-galli), oilseed rape (Brassica napus), waterhemp (common waterhemp, Amaranthus rudis), kochia (Kochia scoparia), wild oat (Avena fatua), surinam grass (Brachiaria decumbens), foxtail, green (green foxtail, Setaria viridis), goosegrass (Eleusine indica), bromegrass, downy (downy bromegrass, Bromus tectorum), nightshade (eastern black nightshade, Solanum ptycanthum), cocklebur (common cocklebur, Xanthium strumarium), cupgrass, woolly (woolly cupgrass, Eriochloa villosa), bermudagrass (Cynodon dactylon), sunflower, (common oilseed sunflower, Helianthus annuus), Russian thistle (Salsola kali), and velvetleaf (Abutilon theophrasti) were planted into a blend of loam soil and sand and treated preemergence with test chemicals formulated in a non-phytotoxic solvent mixture which included a surfactant.
(§2) At the same time, plants selected from these crop and weed species and also barley, winter (winter barley, Hordeum vulgare), windgrass (Apera spica-venti), chickweed (common chickweed, Stellaria media), deadnettle (henbit deadnettle, Lamium amplexicaule), and canarygrass (littleseed canarygrass, Phalaris minor) were planted in pots containing Redi-Earth® planting medium (Scotts Company, 14111 Scottslawn Road, Marysville, Ohio 43041) comprising spaghnum peat moss, vermiculite, wetting agent and starter nutrients and treated with postemergence applications of test chemicals formulated in the same manner. Plants ranged in height from 2 to 18 cm (1- to 4-leaf stage) for postemergence treatments. Treated plants and controls were maintained in a greenhouse for 13 to 15 days, after which time all species were compared to controls and visually evaluated. Plant response ratings, summarized in Table C, are based on a scale of 0 to 100 where 0 is no effect and 100 is complete control. A dash (-) response means no test result.

bermudagrass [1] = assay: Test C preemergence; format: in vivo, Cynodon dactylon; conditions: for Bermudagrass plant response rating: preemergence, scale 0 (no effect) to 100 (complete control); for Plant response rating, Bermudagrass: Preemergence, 31 g ai/ha, scale 0 to 100, 0 no effect, 100 complete control
From the text: as §1, §2

wild oat = assay: Test C preemergence; format: in vivo, Avena fatua; conditions: for Oat, Wild plant response rating: preemergence, scale 0 (no effect) to 100 (complete control); for Plant response rating, Oat, Wild: Preemergence, 31 g ai/ha, scale 0 to 100, 0 no effect, 100 complete control
From the text: as §1, §2

bermudagrass [2] = assay: Test C postemergence; format: in vivo, Cynodon dactylon; conditions: for Plant response rating (0 to 100), Bermudagrass: postemergence; for Plant response rating, Bermudagrass: Postemergence, scale 0 to 100 (0 no effect, 100 complete control)
From the text: as §1, §2

foxtail, green = assay: Test C postemergence; format: in vivo, Setaria viridis; conditions: for Plant response rating (0 to 100), Foxtail, Green: postemergence; for Plant response rating, Foxtail, Green: Postemergence, scale 0 to 100 (0 no effect, 100 complete control)
From the text: as §1, §2

surinam grass = assay: Test C postemergence; format: in vivo, Brachiaria decumbens; conditions: for Plant response rating (0 to 100), Surinam Grass: postemergence; for Plant response rating, Surinam Grass: Postemergence, scale 0 to 100 (0 no effect, 100 complete control)
From the text: as §1, §2

cocklebur = assay: Test C preemergence; format: in vivo, Xanthium strumarium; conditions: for Cocklebur plant response rating: preemergence, scale 0 (no effect) to 100 (complete control); for Plant response rating, Cocklebur: Preemergence, 31 g ai/ha, scale 0 to 100, 0 no effect, 100 complete control
From the text: as §1, §2

[3] = 31 g ai/ha, scale 0 (no effect) to 100 (complete control)

| SMILES | Plant response rating, Russian Thistle (Russian thistle; [3]) | Plant response rating, Russian Thistle (Russian thistle; 62 g ai/ha, scale 0-100) | Plant response rating, Russian Thistle (Russian thistle; 125 g ai/ha, scale 0-100) | Plant response rating, Russian Thistle (Russian thistle; 250 g ai/ha, scale 0-100) | Plant response rating (0 to 100), Barley (barley, winter; 125 g ai/ha) | Plant response rating (0 to 100), Barley (barley, winter; 250 g ai/ha) | Plant response rating, Barley (barley, winter; 31 g ai/ha, 13 to 15 days) | Plant response rating, Barley (barley, winter; 62 g ai/ha) | Bermudagrass plant response rating (bermudagrass [1]; 62 g ai/ha) | Bermudagrass plant response rating (bermudagrass [1]; 125 g ai/ha) | Bermudagrass plant response rating (bermudagrass [1]; 250 g ai/ha) | Plant response rating, Bermudagrass (bermudagrass [1]) | Oat, Wild plant response rating (wild oat; 62 g ai/ha) | Oat, Wild plant response rating (wild oat; 125 g ai/ha) | Oat, Wild plant response rating (wild oat; 250 g ai/ha) | Plant response rating, Oat, Wild (wild oat) | Plant response rating (0 to 100), Bermudagrass (bermudagrass [2]; 125 g ai/ha) | Plant response rating (0 to 100), Bermudagrass (bermudagrass [2]; 250 g ai/ha) | Plant response rating, Bermudagrass (bermudagrass [2]; 31 g ai/ha, 13 to 15 days) | Plant response rating, Bermudagrass (bermudagrass [2]; 62 g ai/ha) | also measured |
| --- | --- | --- | --- | --- | --- | --- | --- | --- | --- | --- | --- | --- | --- | --- | --- | --- | --- | --- | --- | --- | --- |
| Clc1cnc(Oc2ccccc2-n2cc(Cl)cn2)nc1 [Compound 3] | 0 | 30 | 40 | 40 | – | – | – | – | – | – | – | – | – | – | – | – | – | – | – | – | Plant response rating, Russian Thistle (Russian thistle; 16 g ai/ha, scale 0 (no effect) to 100 (complete control)): 0 |
| Clc1cnc(Oc2ccccc2-n2cc(Br)cn2)nc1 [Compound 7, 2-[2-(4-bromo-1H-pyrazol-1-yl)phenoxy]-5-chloropyrimidine] | 0 | 0 | 0 | 0 | 10 | 15 | 0 | 0 | 100 | 100 | 100 | 85 | 5 | 50 | 80 | 0 | 15 | 70 | 0 | 5 | Plant response rating (0 to 100), Foxtail, Green (foxtail, green; 125 g ai/ha): 50; Plant response rating (0 to 100), Foxtail, Green (foxtail, green; 250 g ai/ha): 98; Plant response rating, Foxtail, Green (foxtail, green; 31 g ai/ha, 13 to 15 days): 0; Plant response rating (0 to 100), Surinam Grass (surinam grass; 125 g ai/ha): 30; Plant response rating, Surinam Grass (surinam grass; 31 g ai/ha, 13 to 15 days): 15; Plant response rating, Surinam Grass (surinam grass; 62 g ai/ha): 20; Cocklebur plant response rating (cocklebur; 62 g ai/ha): 5; Cocklebur plant response rating (cocklebur; 125 g ai/ha): 5; Cocklebur plant response rating (cocklebur; 250 g ai/ha): 5; Plant response rating, Cocklebur (cocklebur): 0 |
| Fc1cnc(Oc2ccccc2-n2cc(Br)cn2)nc1 [Compound 10, 2-[2-(4-bromo-1H-pyrazol-1-yl)phenoxy]-5-fluoropyrimidine] | – | – | – | – | 5 | 10 | 0 | 5 | – | – | – | – | – | – | – | – | 5 | 50 | 0 | 5 | Plant response rating (0 to 100), Foxtail, Green (foxtail, green; 125 g ai/ha): 0; Plant response rating (0 to 100), Foxtail, Green (foxtail, green; 250 g ai/ha): 30; Plant response rating, Foxtail, Green (foxtail, green; 31 g ai/ha, 13 to 15 days): 0; Plant response rating, Foxtail, Green (foxtail, green; 62 g ai/ha): 0; Plant response rating (0 to 100), Surinam Grass (surinam grass; 125 g ai/ha): 15; Plant response rating (0 to 100), Surinam Grass (surinam grass; 250 g ai/ha): 15; Plant response rating, Surinam Grass (surinam grass; 31 g ai/ha, 13 to 15 days): 0; Plant response rating, Surinam Grass (surinam grass; 62 g ai/ha): 10 |
| FC(F)(F)c1cnn(-c2ccccc2Oc2ncc(Cl)cn2)c1 [Compound 16] | – | – | – | – | 10 | 35 | 0 | 5 | 98 | 98 | 98 | 95 | 90 | 90 | 90 | 50 | 50 | 55 | 10 | 15 | Plant response rating (0 to 100), Foxtail, Green (foxtail, green; 125 g ai/ha): 30; Plant response rating (0 to 100), Foxtail, Green (foxtail, green; 250 g ai/ha): 100; Plant response rating, Foxtail, Green (foxtail, green; 31 g ai/ha, 13 to 15 days): 10; Plant response rating, Foxtail, Green (foxtail, green; 62 g ai/ha): 30; Plant response rating (0 to 100), Surinam Grass (surinam grass; 125 g ai/ha): 40; Plant response rating (0 to 100), Surinam Grass (surinam grass; 250 g ai/ha): 40; Plant response rating, Surinam Grass (surinam grass; 31 g ai/ha, 13 to 15 days): 10; Plant response rating, Surinam Grass (surinam grass; 62 g ai/ha): 15; Cocklebur plant response rating (cocklebur; 62 g ai/ha): 5; Cocklebur plant response rating (cocklebur; 125 g ai/ha): 5; Cocklebur plant response rating (cocklebur; 250 g ai/ha): 20; Plant response rating, Cocklebur (cocklebur): 0 |
| FC(F)(F)c1cnn(-c2ccccc2Oc2ncc(Br)cn2)c1 [Compound 18, 5-bromo-2-[2-[4-(trifluoromethyl)-1H-pyrazol-1-yl]phenoxy]pyrimidine] | 10 | 25 | 40 | 95 | – | – | – | – | 98 | 98 | 100 | 95 | 50 | 80 | 85 | 0 | – | – | – | – | Cocklebur plant response rating (cocklebur; 62 g ai/ha): 0; Cocklebur plant response rating (cocklebur; 250 g ai/ha): 15 |
| N#Cc1cccc(Oc2ncc(Cl)cn2)c1-n1cc(-n2ccc(C(F)(F)F)n2)cn1 [Compound 284] | 0 | – | 20 | 30 | – | – | – | – | – | – | – | – | – | – | – | – | – | – | – | – | – |
